Test results as given in PMC3356977, “Chemical Inhibition of Bacterial Protein Tyrosine Phosphatase Suppresses Capsule Production” (PLoS ONE, 2012).

Molecular target: T1, CpsB (Streptococcus pneumoniae, UniProt Q9AHD4)
T1 construct: His6CpsB
Assay: inhibition of pNPP dephosphorylation by purified His6CpsB (A410)
Assay type: biochemical

T1 sequence (Q9AHD4 whole entry, looked up): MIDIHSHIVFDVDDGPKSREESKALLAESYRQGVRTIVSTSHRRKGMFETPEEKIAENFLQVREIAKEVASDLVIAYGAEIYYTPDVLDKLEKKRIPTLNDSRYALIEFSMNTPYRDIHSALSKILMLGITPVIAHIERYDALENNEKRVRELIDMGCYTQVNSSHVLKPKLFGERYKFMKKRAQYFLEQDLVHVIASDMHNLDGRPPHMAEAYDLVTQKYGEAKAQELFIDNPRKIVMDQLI

CC(C)=CCC/C(C)=C/CC/C(C)=C/CC/C(C)=C/Cc1cc(OS(=O)(=O)O)ccc1O [FQE, fascioquinol E]
IC50: 5.21 µM
